Reference: ChEMBL document CHEMBL5724914, “Linking interpersonal differences in gut microbiota composition and drug biotransformation activity” (2024)

Experiments:
[1] = (§1) The drug is tested on WLS-073 corresponding to human gut metagenome with ENA study accession number: PRJEB37062 and ENA sample accession number: ERS12561749 for biotransformation under anaerobic condition. The drug concentrations were measured over 9 timepoints collected between 0 and 24 hours of incubation by liquid-chromatography-coupled mass spectrometry (LC–MS); conditions: 2 µM
[2] = human gut metagenome, 24 h, 2 µM
[3] = as §1, with “Z-024” for “WLS-073”, “pig” for “human”, “ERS12561823” for “ERS12561749”; conditions: 2 µM
[4] = as §1, with “WLS-090” for “WLS-073”, “ERS12561753” for “ERS12561749”; conditions: 2 µM
[5] = as §1, with “WLS-370” for “WLS-073”, “ERS12561793” for “ERS12561749”; conditions: 2 µM
[6] = as §1, with “WLS-039” for “WLS-073”, “ERS12561746” for “ERS12561749”; conditions: 2 µM
[7] = as §1, with “Z-005” for “WLS-073”, “to” for “to human gut”, “ERS12561805” for “ERS12561749”; conditions: 2 µM
[8] = human gut metagenome, 24 h, 2 µM; remark: listed apart in the source
[9] = as §1, with “Z-020” for “WLS-073”, “rabbit” for “human”, “ERS12561819” for “ERS12561749”; conditions: 2 µM
[10] = human gut metagenome, 24 h, 2 µM; remark: listed apart in the source
[11] = as §1, with “Z-003” for “WLS-073”, “pig” for “human”, “ERS12561803” for “ERS12561749”; conditions: 2 µM
[12] = human gut metagenome, 24 h, 2 µM; remark: listed apart in the source
[13] = human gut metagenome, 24 h, 2 µM; remark: listed apart in the source
[14] = human gut metagenome, 24 h, 2 µM; remark: listed apart in the source
[15] = human gut metagenome, 24 h, 2 µM; remark: listed apart in the source
[16] = as §1, with “Z-016” for “WLS-073”, “mouse” for “human”, “ERS12561815” for “ERS12561749”; conditions: 2 µM
[17] = as §1, with “Z-006” for “WLS-073”, “mouse” for “human”, “ERS12561806” for “ERS12561749”; conditions: 2 µM
[18] = human gut metagenome, 24 h, 2 µM; remark: listed apart in the source
[19] = as §1, with “Z-017” for “WLS-073”, “mouse” for “human”, “ERS12561816” for “ERS12561749”; conditions: 2 µM
Further: call rule not given here.

SMILES	Bacterial Biotransformation [1]	Bacterial Biotransformation [2]	Bacterial Biotransformation [3]	Bacterial Biotransformation [4]	Bacterial Biotransformation [5]	Bacterial Biotransformation [6]	Bacterial Biotransformation [7]	Bacterial Biotransformation [8]	Bacterial Biotransformation [9]	Bacterial Biotransformation [10]	Bacterial Biotransformation [11]	Bacterial Biotransformation [12]	Bacterial Biotransformation [13]	Bacterial Biotransformation [14]	Bacterial Biotransformation [15]	Bacterial Biotransformation [16]	Bacterial Biotransformation [17]	Bacterial Biotransformation [18]	Bacterial Biotransformation [19]
CN1C(=O)CCS(=O)(=O)C1c1ccc(Cl)cc1 (stereo unspecified) [CHLORMEZANONE]	Compound NOT metabolized	Compound NOT metabolized	Compound NOT metabolized	Compound metabolized	Compound NOT metabolized	Compound NOT metabolized	Compound NOT metabolized	Compound metabolized	Compound NOT metabolized	Compound NOT metabolized	Compound NOT metabolized	Compound NOT metabolized	Compound NOT metabolized	Compound NOT metabolized	Compound NOT metabolized	Compound NOT metabolized	Compound NOT metabolized	Compound NOT metabolized	Compound NOT metabolized
OC(CCN1CCCCC1)(c1ccccc1)C1CC2C=CC1C2 (stereo unspecified) [BIPERIDEN]	Compound NOT metabolized	Compound metabolized		Compound metabolized	Compound metabolized	Compound NOT metabolized		Compound NOT metabolized		Compound metabolized		Compound NOT metabolized	Compound metabolized	Compound NOT metabolized	Compound NOT metabolized			Compound metabolized	
CCC1(c2ccc(N)cc2)CCC(=O)NC1=O (stereo unspecified) [AMINOGLUTETHIMIDE]	Compound NOT metabolized	Compound NOT metabolized	Compound metabolized	Compound NOT metabolized	Compound NOT metabolized	Compound NOT metabolized	Compound NOT metabolized	Compound NOT metabolized	Compound NOT metabolized	Compound NOT metabolized	Compound NOT metabolized	Compound NOT metabolized	Compound NOT metabolized	Compound NOT metabolized	Compound NOT metabolized	Compound NOT metabolized	Compound NOT metabolized	Compound NOT metabolized	Compound NOT metabolized
CS(=O)(=O)O.O.O.O.O=C1Cc2cc(CCN3CCN(c4nsc5ccccc45)CC3)c(Cl)cc2N1 [ZIPRASIDONE MESYLATE]	Compound metabolized	Compound metabolized		Compound metabolized	Compound NOT metabolized	Compound metabolized		Compound NOT metabolized		Compound NOT metabolized		Compound metabolized	Compound NOT metabolized	Compound NOT metabolized	Compound metabolized			Compound metabolized	
Cc1nc2n(c(=O)c1CCN1CCC(c3noc4cc(F)ccc34)CC1)CCCC2O (stereo unspecified) [PALIPERIDONE]	Compound metabolized	Compound metabolized	Compound metabolized	Compound metabolized	Compound metabolized	Compound metabolized	Compound NOT metabolized	Compound metabolized	Compound NOT metabolized	Compound metabolized	Compound NOT metabolized	Compound metabolized	Compound metabolized	Compound metabolized	Compound metabolized	Compound NOT metabolized		Compound metabolized	Compound NOT metabolized
CC(=O)O[C@]1(C(C)=O)CC[C@H]2[C@@H]3C=C(Cl)C4=CC(=O)[C@@H]5C[C@@H]5[C@]4(C)[C@H]3CC[C@@]21C [CYPROTERONE ACETATE]	Compound metabolized	Compound metabolized		Compound metabolized	Compound metabolized	Compound metabolized	Compound metabolized	Compound metabolized		Compound metabolized	Compound metabolized	Compound metabolized	Compound metabolized	Compound metabolized	Compound metabolized			Compound metabolized	
CN1C[C@H](C(=O)N[C@]2(C)O[C@@]3(O)[C@@H]4CCCN4C(=O)[C@H](Cc4ccccc4)N3C2=O)C=C2c3cccc4[nH]cc(c34)C[C@H]21.CN1C[C@H](C(=O)N[C@]2(C)O[C@@]3(O)[C@@H]4CCCN4C(=O)[C@H](Cc4ccccc4)N3C2=O)C=C2c3cccc4[nH]cc(c34)C[C@H]21.O=C(O)C(O)C(O)C(=O)O [ERGOTAMINE TARTRATE]	Compound NOT metabolized	Compound metabolized		Compound metabolized	Compound metabolized	Compound metabolized	Compound NOT metabolized	Compound metabolized		Compound NOT metabolized		Compound metabolized	Compound metabolized	Compound metabolized	Compound metabolized		Compound NOT metabolized	Compound metabolized	
CN1CCN(CC/C=C2/c3ccccc3Sc3ccc(S(=O)(=O)N(C)C)cc32)CC1 [THIOTHIXENE]	Compound metabolized	Compound metabolized		Compound metabolized	Compound metabolized	Compound metabolized		Compound NOT metabolized		Compound NOT metabolized		Compound metabolized	Compound metabolized	Compound metabolized	Compound metabolized			Compound metabolized	
Cc1ccc(/C(=C\CN2CCCC2)c2ccccn2)cc1 [TRIPROLIDINE]	Compound NOT metabolized	Compound NOT metabolized	Compound NOT metabolized	Compound NOT metabolized	Compound NOT metabolized	Compound NOT metabolized	Compound NOT metabolized	Compound NOT metabolized		Compound NOT metabolized	Compound metabolized	Compound metabolized	Compound NOT metabolized	Compound NOT metabolized	Compound NOT metabolized	Compound NOT metabolized	Compound NOT metabolized	Compound metabolized	
COC(=O)C1=C(C)NC(C)=C(C(=O)OC(C)C)C1c1cccc2nonc12 (stereo unspecified) [ISRADIPINE]	Compound NOT metabolized	Compound metabolized		Compound metabolized	Compound metabolized			Compound metabolized		Compound metabolized	Compound metabolized	Compound metabolized	Compound metabolized	Compound metabolized	Compound NOT metabolized			Compound metabolized	
CN(C(=O)CN(CCO)CC(=O)N(C)C(C)(C)Cc1ccccc1)C(C)(C)Cc1ccccc1 [OXETHAZAINE]	Compound metabolized	Compound metabolized		Compound metabolized	Compound metabolized	Compound metabolized		Compound metabolized		Compound metabolized		Compound metabolized	Compound metabolized	Compound metabolized	Compound metabolized			Compound metabolized	
